Measured values as given in patent US8852628B1, “Transdermal drug delivery system for diclofenac” (Noven Pharmaceuticals, Inc., priority 2009, dated 2014).

Assay: in-vitro permeation study utilizing modified Franz cells (flux)
Type: in vitro ADME, human
Conditions: diclofenac sodium, acid and potassium as single entities in formulations similar to the examples; particularly with oleic acid and dipropylene glycol
Experimental: The flux data was collected from an in-vitro permeation study utilizing modified Franz cells with stratum corneum obtained from human cadaver skin by the heat separation technique. The receiver solution for this study was 0.9% NaCl with 0.01% NaN3 in deionized water. Franz cells were maintained at about 32° C. for the duration of this study. Flux samples were analyzed by HPLC.

- flux rate, drug forms fluxed as single entities: highest rate
Compound: O=C(O)Cc1ccccc1Nc1c(Cl)cccc1Cl [diclofenac potassium]
